Data reported in patent US7982094B2, “Gene encoding lignan methylation enzyme” (Sunitory Holdings Limited, priority 2006, dated 2011).

How the values were obtained:
[1] = tested on: SiOMT1; test: Assay for COMT activity of SiOMT1 on caffeic acid; format: biochemical, Sesamum indicum; conditions: 0.4 mg/ml caffeic acid, 10 mM SAM, 30° C. for an hour, HPLC and LC-MS; product ferulic acid
Description: (§1) The methyltransferase activity of SiOMT1 and SrOMT1 expressed in EXAMPLES 5 and 7 on caffeic acid was studied. In a reaction tube, 10 μl of 0.4 mg/ml caffeic acid, 200 μl of the crude enzyme solution of SiOMT expressed in Escherichia coli and 10 μl of 10 mM SAM were mixed, and the mixture was reacted at 30° C. for an hour.

[2] = tested on: SrOMT1; test: Assay for COMT activity of SrOMT1 on caffeic acid; format: biochemical, Sesamum radiatum; conditions: 0.4 mg/ml caffeic acid, 10 mM SAM, 30° C. for an hour, HPLC and LC-MS; product ferulic acid
Description: as §1

[3] = tested on: SiOMT2; test: Lignan methylation activity assay of recombinant SiOMT2 (crude enzyme from E. coli, SAM, HPLC of products); format: biochemical, Sesamum indicum; conditions: substrate solution 1 mg/ml, 10 mM SAM, 30° C. for 2 hours, HPLC at 280 nm
Description: (§2) Sesame lignan used as a substrate for the enzyme reaction was dissolved in a small quantity of DMSO and then in 70% ethanol to prepare the substrate solution (1 mg/ml). Sesame lignan can be produced, for example, by extracting and purifying from sesame in accordance with publicly known methods (J. Bioscience, Biotechnology and Biochemistry, 67: 1693 (1993)). After 10 μl of the substrate solution, 200 μl of the aforesaid crude enzyme solution of SiOMT expressed in Escherichia coli and 10 μl of 10 mM S-adenosyl-L-methionine (SAM) were mixed in a reaction tube, the mixture was reacted at 30° C. for 2 hours.
The enzyme reaction was terminated by adding 100% acetonitrile (250 μl) containing 0.1% trifluoroacetic acid (TFA) to the reaction tube. […] The resulting supernatant was washed through a filter (pore size of […], 4 mm Millex-LH, Millipore) and then analyzed using high performance liquid chromatography (hereinafter HPLC). […]
Liquid chromatography (Lc-2010c, Shimadzu Corporation) was performed using a C-30 column (Nomura Chemical, C30-UG-5, […]). […] Absorption was monitored at 280 nm to detect the compounds contained in a sample. The spectra between 190 nm and 400 nm for each peak of the compounds were measured using SPD-10AV (Shimadzu Corporation) to detect substances having two absorption maxima (230 nm and 280 nm) characteristic of lignans. […]

[4] = tested on: SiOMT1; test: Lignan methylation activity assay of recombinant SiOMT1 (crude enzyme from E. coli, SAM, HPLC/LC-MS of products); format: biochemical, Sesamum indicum; conditions: substrate solution 1 mg/ml, 10 mM SAM, 30° C. for 2 hours, HPLC at 280 nm
Description: as §2
The enzyme reaction was terminated by adding 100% acetonitrile (250 μl) containing 0.1% trifluoroacetic acid (TFA) to the reaction tube. The reaction tube was vigorously agitated with a vortex mixer, followed by centrifugation at 15,000 rpm at 4° C. for 5 minutes. The resulting supernatant was washed through a filter (pore size of […], 4 mm Millex-LH, Millipore) and then analyzed using high performance liquid chromatography (hereinafter HPLC). The conditions for the analysis of lignans and methylated lignans are as follows.
Liquid chromatography (Lc-2010c, Shimadzu Corporation) was performed using a C-30 column (Nomura Chemical, C30-UG-5, […]). […] Absorption was monitored at 280 nm to detect the compounds contained in a sample. The spectra between 190 nm and 400 nm for each peak of the compounds were measured using SPD-10AV (Shimadzu Corporation) to detect substances having two absorption maxima (230 nm and 280 nm) characteristic of lignans. Under the conditions, authentic pinoresinol is detected at about 11.8 minutes, authentic piperitol at about 15.5 minutes and authentic sesaminol at about 16.8 minutes.
Next, the molecular weight of the novel lignan produced with SiOMT1 was determined by the LC-MS analysis (liquid chromatography (LC): Waters 2795 (Waters Inc.), mass spectrograph: QUATRO micro (MICROMASS, Inc.)). […]
Under the conditions, peak A is detected at about 8.3 minutes and peak B at about 11.3 minutes (FIGS. 3-5). […]

[5] = tested on: SrOMT1; test: Lignan methylation activity assay of recombinant SrOMT1 (crude enzyme from E. coli, SAM, HPLC of products); format: biochemical, Sesamum radiatum; conditions: as in EXAMPLE 6: 10 mM SAM, 30° C. for 2 hours

methyltransferase (COMT) activity of SiOMT1 on caffeic acid [1] | methyltransferase (COMT) activity of SrOMT1 on caffeic acid [2] | Molecule | methylation of the substrate by SiOMT2 (lignan methylation activity) [3] | methylation of the substrate by SiOMT1 (lignan methylation activity) [4] | methylation of the substrate by SrOMT1 (lignan methylation activity) [5]
had the COMT activity | had the COMT activity | O=C(O)/C=C/c1ccc(O)c(O)c1 [caffeic acid] |  |  | 
 |  | COc1cc([C@@H]2OC[C@@H]3[C@H]2CO[C@H]3c2ccc3c(c2)OCO3)ccc1O [piperitol] | any new product was not detected | having the monomethylation activity | exhibited the methylation activity
 |  | Oc1cc2c(cc1[C@H]1OC[C@H]3[C@@H]1CO[C@@H]3c1ccc3c(c1)OCO3)OCO2 [sesaminol] |  | did not show any methylation activity | 
 |  | pinoresinol | any new product was not detected | having the monomethylation activity | exhibited the methylation activity
